Data taken from publication PMC11467737, “Osteocalcin binds to a GPRC6A Venus fly trap allosteric site to positively modulate GPRC6A signaling” (FASEB BioAdvances, 2024).
Where a chain is given by its changes, count along the chain named. Bridge positions count the residues as written; N and C are the ends. Ends that are not written are not given here.

Experiments:
human GPRC6A isoform 1 = molecular target: T1, human GPRC6A isoform 1 (Homo sapiens, UniProt Q5T6X5); assay: ERK activation (phospho-ERK/total ERK ELISA) in HEK-293 cells transfected with human GPRC6A isoform 1 (wild-type); type: cell-based; conditions: for ERK phosphorylation by synthesized human Ocn fragments: fragments at 20 nM, HEK-293 with pcDNA3-hGPRC6A, Figure 3B / S5B
T1 construct: expressed in transfected cells; host or cells: HEK-293, pcDNA3-hGPRC6A
T1 sequence (Q5T6X5 19-926): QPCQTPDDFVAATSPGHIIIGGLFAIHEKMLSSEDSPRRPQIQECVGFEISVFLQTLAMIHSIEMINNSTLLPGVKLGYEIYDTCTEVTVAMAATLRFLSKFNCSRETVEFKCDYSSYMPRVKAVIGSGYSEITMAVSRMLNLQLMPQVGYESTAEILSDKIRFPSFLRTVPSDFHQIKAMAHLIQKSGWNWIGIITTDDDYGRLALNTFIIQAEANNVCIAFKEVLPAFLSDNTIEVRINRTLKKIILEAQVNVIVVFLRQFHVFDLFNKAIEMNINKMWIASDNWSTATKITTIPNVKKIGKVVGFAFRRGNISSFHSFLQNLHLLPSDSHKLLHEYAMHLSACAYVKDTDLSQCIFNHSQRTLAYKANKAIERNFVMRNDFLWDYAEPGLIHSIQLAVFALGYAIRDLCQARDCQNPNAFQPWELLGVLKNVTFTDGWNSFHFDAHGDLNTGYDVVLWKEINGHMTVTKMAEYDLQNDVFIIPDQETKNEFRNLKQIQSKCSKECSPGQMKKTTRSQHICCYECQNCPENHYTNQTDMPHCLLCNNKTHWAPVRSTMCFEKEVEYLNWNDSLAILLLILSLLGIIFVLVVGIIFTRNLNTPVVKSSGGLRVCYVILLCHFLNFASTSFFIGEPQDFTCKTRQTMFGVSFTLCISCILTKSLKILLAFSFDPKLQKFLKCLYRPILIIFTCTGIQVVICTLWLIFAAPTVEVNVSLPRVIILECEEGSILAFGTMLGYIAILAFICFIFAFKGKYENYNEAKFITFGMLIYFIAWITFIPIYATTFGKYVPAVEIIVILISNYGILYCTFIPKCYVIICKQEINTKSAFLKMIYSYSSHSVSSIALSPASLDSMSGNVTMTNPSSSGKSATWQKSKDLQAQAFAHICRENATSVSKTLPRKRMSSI
Description: All culture reagents were from Invitrogen (Waltham, MA, USA). Human embryonic kidney HEK‐293 cells were obtained from American Type Culture Collection and cultured in DMEM medium supplemented with 10% fetal bovine serum and 1% Penicillin/Streptomycin (P/S). Briefly, HEK‐293 cells transfected with/without human GPRC6A isoforms cDNA plasmids were starved by overnight incubation in serum‐free DMEM/F12 containing 0.1% bovine serum albumin (BSA) and stimulated with various ligands at different doses. […]

K352E hGPRC6A = molecular target: T2, K352E hGPRC6A (Homo sapiens, UniProt Q5T6X5, K352E); assay: ERK activation in HEK-293 cells transfected with K352E hGPRC6A; type: cell-based; conditions: K352E mutant; for ERK activation by Ocn small fragments: fragment at 20 nM, Figure 6D
T2 construct: expressed in transfected cells; host or cells: HEK-293, pcDNA3
T2 sequence (Q5T6X5 19-926 K352E): T1 sequence (Q5T6X5 19-926) with K334E
Description: All culture reagents were from Invitrogen (Waltham, MA, USA). Human embryonic kidney HEK‐293 cells were obtained from American Type Culture Collection and cultured in DMEM medium supplemented with 10% fetal bovine serum and 1% Penicillin/Streptomycin (P/S). Briefly, HEK‐293 cells transfected with/without human GPRC6A isoforms cDNA plasmids were starved by overnight incubation in serum‐free DMEM/F12 containing 0.1% bovine serum albumin (BSA) and stimulated with various ligands at different doses. ERK activation was assessed 20 min after treatment by using ERK1/2 (phospho‐T203/Y204) ELISA Kit (Invitrogen; Waltham, MA, USA) corrected for the amount of total ERK using ERK1/2 (Total) ELISA Kit (Invitrogen; Waltham, MA, USA) to measure ERK levels.
In‐vitro mutagenesis by PCR‐mediated recombination QuikChange II XL Site‐Directed Mutagenesis Kit (Agilent) was performed using the cDNA of human GPRC6A cloned in the vector pcDNA3 (Invitrogen) as a template. The primer sets are as follows. K352E.sen: […]; K352E.antisen: […]; H355P.sen: […]; H355P.antisen: […]; K352E/H355P.sen: […]; and K352E/H355P.antisen: […]. All mutants were confirmed by sequencing.

Substance	ERK phosphorylation by synthesized human Ocn fragments (human GPRC6A isoform 1; 15 min)	ERK activation by Ocn small fragments (K352E hGPRC6A)	ERK phosphorylation, dose response of full-length Ocn (human GPRC6A isoform 1; WT hGPRC6A, Figure 6B)	Ocn-induced ERK activation, dose response (human GPRC6A isoform 1; isoform 1, Ocn 1.73, 8.65, 17.3, 26.0 nM, 1 mM calcium, 15 min, Figure 2B)	ERK phosphorylation, dose response of full-length Ocn, versus wild-type receptor (K352E hGPRC6A; Figure 6B)
REVCELNPDC (disulfide 4-10 (inferred)) [Ocn 20–29, synthesized human Ocn decapeptide fragment located in the middle of the protein]	high activity	no response			
RFYGPV [Ocn 44–49, synthesized human Ocn C‐terminal hexapeptide]	high activity	significantly attenuated			
osteocalcin (YLYQWLGAPVPYPDPLEPRREVCELNPDCDELADHIGFQEAYRRFYGPV; not fully specified; ends and bridges not checked; UniProt P02818 52-100, looked up) [Ocn 1–49, full human Ocn (49 aa) synthesized by BioMatik; methods also describe decarboxylated Ocn purified from bovine tibial bone, reference compound]			dose‐dependently stimulated	activated GPRC6A isoform 1 in a dose dependent manner	significantly decreased
